From US9034921B2, “Diphenylmethane derivatives as SGLT2 inhibitors” (GREEN CROSS CORPORATION, priority 2011, dated 2015) come the findings set out here.

A word on the pIC50: it is the negative decadic logarithm of the IC50, by convention in mol/L. Read a low pIC50 as a large IC50.

pIC50: −log10 of the molar value. Where a name gives a salt, the structure may show the parent alone.

Chain of human SGLT2 (P31639 whole entry): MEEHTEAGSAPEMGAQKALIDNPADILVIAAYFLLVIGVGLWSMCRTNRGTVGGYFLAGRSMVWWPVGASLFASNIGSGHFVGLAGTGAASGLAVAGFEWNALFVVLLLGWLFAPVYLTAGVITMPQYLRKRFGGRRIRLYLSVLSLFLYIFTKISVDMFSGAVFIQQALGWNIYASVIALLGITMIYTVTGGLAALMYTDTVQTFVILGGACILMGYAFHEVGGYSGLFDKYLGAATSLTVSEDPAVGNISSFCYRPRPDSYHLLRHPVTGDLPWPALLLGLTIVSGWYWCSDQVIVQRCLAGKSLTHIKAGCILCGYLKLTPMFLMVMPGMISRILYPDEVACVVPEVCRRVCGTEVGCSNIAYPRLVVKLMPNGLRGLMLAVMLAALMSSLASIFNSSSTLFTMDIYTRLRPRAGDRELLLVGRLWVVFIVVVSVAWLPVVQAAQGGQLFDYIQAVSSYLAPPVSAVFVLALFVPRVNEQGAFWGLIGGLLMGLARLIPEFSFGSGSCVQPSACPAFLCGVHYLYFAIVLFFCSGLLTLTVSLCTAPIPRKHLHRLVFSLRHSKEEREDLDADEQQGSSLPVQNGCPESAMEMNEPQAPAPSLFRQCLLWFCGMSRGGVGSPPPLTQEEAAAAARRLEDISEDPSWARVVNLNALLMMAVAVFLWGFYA

In the test the target is human SGLT2 (Homo sapiens (Human), UniProt P31639). As to the kind of experiment: Inhibitory effects on human SGLT2 activities (14C-AMG uptake, sodium-dependent glucose transport assay). The test is classed as cell-based. The following applies: CHO cells stably expressing hSGLT2, 37° C., 2 h, single determinations. An excerpt:
Test 1: Cloning and Cell Line Construction for Human SGLT2
Human SGLT2 (hSGLT2) gene was amplified by PCR from cDNA-Human Adult Normal Tissue Kidney (Invitrogen). The hSGLT2 sequence was cloned into pcDNA3.1(+) for mammalian expression and stably transfected into chinese hamster ovary (CHO) cells. SGLT2-expressing clones were selected based on resistance to G418 antibiotic (Geneticin) and activity in the ^14C-α-methyl-D-glucopyranoside (^14C-AMG) uptake assay.
Test 2: Inhibitory Effects on Human SGLT2 Activities
For sodium-dependent glucose transport assay, cells expressing hSGLT2 were seeded into a 96-well culture plate at a density of 5×10^4 cells/well in RPMI medium 1640 containing 10% fetal bovine serum. The cells were used 1 day after plating. They were incubated in pretreatment buffer (10 mM HEPES, 5 mM Tris, 140 mM choline chloride, 2 mM KCl, 1 mM CaCl2, and 1 mM MgCl2, pH 7.4) at 37° C. for 10 min. They were then incubated in uptake buffer (10 mM HEPES, 5 mM Tris, 140 mM NaCl, 2 mM KCl, 1 mM CaCl2, 1 mM MgCl2, and 1 mM ^14C-nonlabeled AMG pH 7.4) containing ^14C-labeled AMG (8 μM) and the inventive compound or dimethyl sulfoxide (DMSO) vehicle at 37° C. for 2 h. Cells were washed twice with washing buffer (pretreatment buffer containing 10 mM AMG at room temperature) and then the radioactivity was measured using a liquid scintillation counter. IC50 was determined by nonlinear regression analysis using GraphPad PRISM [Katsuno, K. et al. J. Pharmacol. Exp. Ther. 2007, 320, 323-330; Han, S. et al. Diabetes, 2008, 57, 1723-1729].
`CCc1ccc(Cc2cc([C@@H]3O[C@H](CO)[C@@H](O)[C@H](O)[C@H]3O)c3c(c2Cl)OC(C)C3)cc1` (stereo partly drawn) [Example E136, (2S,3R,4R,5S,6R)-2-(7-Chloro-6-(4-ethylbenzyl)-2-methyl-2,3-dihydrobenzofuran-4-yl)-6-(hydroxymethyl)tetrahydro-2H-pyran-3,4,5-triol] had a pIC50 of 9.08. `OC[C@H]1O[C@@H](c2cc(Cc3ccc(OCCOC4CC4)cc3)c(Cl)c3c2CCO3)[C@H](O)[C@@H](O)[C@@H]1O` [Example E198, (2S,3R,4R,5S,6R)-2-(7-Chloro-6-(4-(2-cyclopropoxyethoxy)benzyl)-2,3-dihydrobenzofuran-4-yl)-6-(hydroxymethyl)tetrahydro-2H-pyran-3,4,5-triol]: the pIC50 was 8.69. Turning to `COc1ccc(Cc2cc([C@@H]3O[C@H](CO)[C@@H](O)[C@H](O)[C@H]3O)c3occ(OC)c3c2Cl)cc1` [Example E202, (2S,3R,4R,5S,6R)-2-(4-Chloro-3-methoxy-5-(4-methoxybenzyl)benzofuran-7-yl)-6-(hydroxymethyl)tetrahydro-2H-pyran-3,4,5-triol], the pIC50 was 7.37. The compound `CCc1ccc(Cc2cc([C@@H]3O[C@H](CO)[C@@H](O)[C@H](O)[C@H]3O)c3c(c2Cl)CCC3)cc1` [Example E238, (2S,3R,4R,5S,6R)-2-(7-Chloro-6-(4-ethylbenzyl)-2,3-dihydro-1H-inden-4-yl)-6-(hydroxymethyl)tetrahydro-2H-pyran-3,4,5-triol] had a pIC50 of 9.20. In the case of `CS[C@H]1O[C@@H](c2cc(Cc3ccc4c(c3)OCCO4)c(Cl)cc2O)[C@H](O)[C@@H](O)[C@@H]1O` [Example E098, (2S,3R,4R,5S,6R)-2-(4-Chloro-5-((2,3-dihydrobenzo[b][1,4]dioxin-6-yl)methyl)-2-hydroxyphenyl)-6-(methylthio)-tetrahydro-2H-pyran-3,4,5-triol], the pIC50 is 9.34.

`CC(C)(O)c1ccc(Cc2cc([C@@H]3O[C@H](CO)[C@@H](O)[C@H](O)[C@H]3O)c3c(c2Cl)OCC3)cc1` [Example E175, (2S,3R,4R,5S,6R)-2-(7-Chloro-6-(4-(2-hydroxypropan-2-yl)benzyl)-2,3-dihydrobenzofuran-4-yl)-6-(hydroxymethyl)tetrahydro-2H-pyran-3,4,5-triol]: the negative-log IC50 (pIC50) was 8.69. Compared with the last compound, the pIC50 is 0.65 log units lower. `COc1ccc(Cc2cc([C@@H]3O[C@H](CO)[C@@H](O)[C@H](O)[C@H]3O)c3c(c2Br)CCC3)cc1` [Example E001, (2S,3R,4R,5S,6R)-2-(7-Bromo-6-(4-methoxybenzyl)-2,3-dihydro-1H-inden-4-yl)-6-(hydroxymethyl)tetrahydro-2H-pyran-3,4,5-triol] showed a negative-log IC50 (pIC50) of 8.94. Compound `COc1ccc(Cc2cc([C@@H]3O[C@H](CO)[C@@H](O)[C@H](O)[C@H]3O)c3c(c2Cl)SCCC3)cc1` [Example E242, (2S,3R,4R,5S,6R)-2-(8-Chloro-7-(4-methoxybenzyl)thiochroman-5-yl)-6-(hydroxymethyl)tetrahydro-2H-pyran-3,4,5-triol] showed a pIC50 of 9.26.

Take `OC[C@H]1O[C@@H](c2cc(Cc3ccccc3)c(Cl)c3c2CCO3)[C@H](O)[C@@H](O)[C@@H]1O` [Example E166, (2S,3R,4R,5S,6R)-2-(6-Benzyl-7-chloro-2,3-dihydrobenzofuran-4-yl)-6-(hydroxymethyl)tetrahydro-2H-pyran-3,4,5-triol]: the pIC50 was 8.37. Then `CC(O)c1ccc(Cc2cc([C@@H]3O[C@H](CO)[C@@H](O)[C@H](O)[C@H]3O)c3c(c2Cl)OCC3)cc1` (stereo partly drawn) [Example E169, (2S,3R,4R,5S,6R)-2-(7-Chloro-6-(4-(1-hydroxyethyl)benzyl)-2,3-dihydrobenzofuran-4-yl)-6-(hydroxymethyl)tetrahydro-2H-pyran-3,4,5-triol], with 8.67; and `CNc1ccc(Cc2cc([C@@H]3O[C@H](CO)[C@@H](O)[C@H](O)[C@H]3O)c3c(c2Cl)OCC3)cc1` [Example E141, (2S,3R,4R,5S,6R)-2-(7-Chloro-6-(4-(methylamino)benzyl)-2,3-dihydrobenzofuran-4-yl)-6-(hydroxymethyl)tetrahydro-2H-pyran-3,4,5-triol 2,2,2-trifluoroacetate], with 8.55.

As for `CCc1ccc(Cc2cc([C@@H]3O[C@H](CO)[C@@H](O)[C@H](O)[C@H]3O)c3c(c2Cl)OCCO3)cc1` [Example E105, (2S,3R,4R,5S,6R)-2-(8-Chloro-7-(4-ethylbenzyl)-2,3-dihydrobenzo[b][1,4]dioxin-5-yl)-6-(hydroxymethyl)tetrahydro-2H-pyran-3,4,5-triol], the pIC50 was 9.03. Against the preceding compound, the pIC50 is 0.48 log units higher. `CCc1ccc(Cc2cc([C@@H]3O[C@H](CO)[C@@H](O)[C@H](O)[C@H]3O)c3c(c2Cl)OCC3)cc1` [Example E020, (2S,3R,4R,5S,6R)-2-(6-(4-Ethylbenzyl)-7-chloro-2,3-dihydrobenzofuran-4-yl)-6-(hydroxymethyl)-tetrahydro-2H-pyran-3,4,5-triol] had a pIC50 of 9.15. In the case of `COc1ccc(Cc2cc([C@@H]3O[C@H](CO)[C@@H](O)[C@H](O)[C@H]3O)c3c(c2C)CCC3)cc1` [Example E007, (2R,3S,4R,5R,6S)-2-(Hydroxymethyl)-6-(6-(4-methoxybenzyl)-7-methyl-2,3-dihydro-1H-inden-4-yl)tetrahydro-2H-pyran-3,4,5-triol] it was 9.10. Turning to `CC(F)c1ccc(Cc2cc([C@@H]3O[C@H](CO)[C@@H](O)[C@H](O)[C@H]3O)c3c(c2Cl)OCC3)cc1` (stereo partly drawn) [Example E170, (2S,3R,4R,5S,6R)-2-(7-Chloro-6-(4-(1-fluoroethyl)benzyl)-2,3-dihydrobenzofuran-4-yl)-6-(hydroxymethyl)tetrahydro-2H-pyran-3,4,5-triol], the pIC50 was 8.84. For the compound `Cc1c(Cc2ccc3c(c2)OCCO3)cc([C@@H]2O[C@H](CO)[C@@H](O)[C@H](O)[C@H]2O)cc1-c1ccccc1` [Example E084, (2S,3R,4R,5S,6R)-2-(5-((2,3-Dihydrobenzo[b][1,4]dioxin-6-yl)methyl)-6-methylbiphenyl-3-yl)-6-(hydroxymethyl)-tetrahydro-2H-pyran-3,4,5-triol], the pIC50 was 8.28. `CCOc1ccc(Cc2cc([C@@H]3O[C@H](OC)[C@@H](O)[C@H](O)[C@H]3O)c(OC)cc2Cl)cc1` [Example E109, (2S,3R,4R,5S,6S)-2-(4-Chloro-5-(4-ethoxybenzyl)-2-methoxyphenyl)-6-methoxytetrahydro-2H-pyran-3,4,5-triol] showed a pIC50 of 7.54. As to `CC(C)n1cc2cc(Cc3cc([C@@H]4O[C@H](CO)[C@@H](O)[C@H](O)[C@H]4O)ccc3Cl)ccc2n1` [Example E040, (2S,3R,4R,5S,6R)-2-(4-Chloro-3-((2-isopropyl-2H-indazol-5-yl)methyl)phenyl)-6-(hydroxymethyl)tetrahydro-2H-pyran-3,4,5-triol], the pIC50 is 8.35.

The compound `CN(C)c1ccc(Cc2cc([C@@H]3O[C@H](CO)[C@@H](O)[C@H](O)[C@H]3O)c3c(c2Cl)CCO3)cc1` [Example E197, (2S,3R,4R,5S,6R)-2-(4-Chloro-5-(4-(dimethylamino)benzyl)-2,3-dihydrobenzofuran-7-yl)-6-(hydroxymethyl)tetrahydro-2H-pyran-3,4,5-triol] had a pIC50 of 8.49. Turning to `CN(C)c1ccc(Cc2cc([C@@H]3O[C@H](CO)[C@@H](O)[C@H](O)[C@H]3O)c3c(c2Cl)CCC3)cc1` [Example E116, (2S,3R,4R,5S,6R)-2-(7-Chloro-6-(4-(dimethylamino)benzyl)-2,3-dihydro-1H-inden-4-yl)-6-(hydroxymethyl)tetrahydro-2H-pyran-3,4,5-triol], the negative-log IC50 (pIC50) is 9.32. With `COc1ccc(Cc2cc([C@@H]3O[C@H](CO)[C@@H](O)[C@H](O)[C@H]3O)c3c(c2C(F)F)CCC3)cc1` [Example E237, (2S,3R,4R,5S,6R)-2-(7-(Difluoromethyl)-6-(4-methoxybenzyl)-2,3-dihydro-1H-inden-4-yl)-6-(hydroxymethyl)tetrahydro-2H-pyran-3,4,5-triol], the pIC50 is 9.13. In turn, `CCOc1ccc(Cc2cc([C@@H]3O[C@H](SC)[C@@H](O)[C@H](O)[C@H]3O)c3c(c2Cl)CC(C)O3)cc1` (stereo partly drawn) [Example E145, (2S,3R,4R,5S,6R)-2-(4-Chloro-5-(4-ethoxybenzyl)-2-methyl-2,3-dihydrobenzofuran-7-yl)-6-(methylthio)tetrahydro-2H-pyran-3,4,5-triol] showed a pIC50 of 9.16. With `CC(C)c1ccc(Cc2cc([C@@H]3O[C@H](CO)[C@@H](O)[C@H](O)[C@H]3O)c3c(c2Cl)OCO3)cc1` [Example E159, (2S,3R,4R,5S,6R)-2-(7-Chloro-6-(4-isopropylbenzyl)benzo[d][1,3]dioxol-4-yl)-6-(hydroxymethyl)tetrahydro-2H-pyran-3,4,5-triol], the pIC50 was 9.06. Then `CN(C)Cc1ccc(Cc2cc([C@@H]3O[C@H](CO)[C@@H](O)[C@H](O)[C@H]3O)c3c(c2Cl)OCC3)cc1` [Example E184, (2S,3R,4R,5S,6R)-2-(7-Chloro-6-(4-((dimethylamino)methyl)benzyl)-2,3-dihydrobenzofuran-4-yl)-6-(hydroxymethyl)tetrahydro-2H-pyran-3,4,5-triol trifluoro acetic acid salt], with 6.79.
